Non-standard residues stand in square brackets, D forms with d. Residues, ends and D or L forms follow the SMILES beside them. *: point of attachment. dPhe(4-NHCONH2) = NC(=O)Nc1ccc(C[C@@H](N)C(=O)O)cc1; Dihydroorotyl(S) = O=C1C[C@@H](C(=O)*)NC(=O)N1; dPhe(4-Cl) = N[C@H](Cc1ccc(Cl)cc1)C(=O)O; Phe(4-NH2) = Nc1ccc(C[C@H](N)C(=O)O)cc1; d2Nal = N[C@H](Cc1ccc2ccccc2c1)C(=O)O; Lys(iPr) = CC(C)NCCCC[C@H](N)C(=O)O; d3Pal = N[C@H](Cc1cccnc1)C(=O)O
Tests used:
Format in all cases: in vivo, human
[1] = system: Patient with Rheumatoid Arthritis; test: RA patient treated with degarelix and methotrexate
Experimental: • person with seropositive rheumatoid arthritis with disease duration of 16 years • Fulfilled ACR 2010 classification criteria for rheumatoid arthritis
• Previously failed 3 biologics (etanercept, Actemra, and rituximab). Last tried rituximab November 2013, but increasing disease activity and blood tests (CRP and ESR) during the months thereafter until start of degarelix 16.06.14. Concomitantly used stable methotrexate 10 mg weekly since 1999. • Started degarelix 240 mg induction dose 16.06.14, with 80 mg every 2 weeks thereafter. • Disease activity reduced and they achieved an ACR60 response by 29.09.14 under the introduction of degarelix and stable concomitant methotrexate and prednisolone. • 03.10.14 the patient's pulmonary physician stopped methotrexate treatment due to pleural thickening, and CT imaging supporting lung fibrosis which was suspected to be due to methotrexate. The patient had dyspnea which resolved once methotrexate was stopped. • By 21.11.14, the patients disease activity score had increased from 5.1 (29.9.14) to 5.7 (21.11.14), due to the discontinuation of methotrexate.

[2] = system: Patient with Ankylosing Spondylitis; test: Ankylosing spondylitis patient treated with degarelix (and earlier TNF inhibitors); details: for Glomerular filtration rate (>60): 10 Sep. 2014 56; for Creatinine (60-105 μmol/L): 10 Sep. 2014 112; for Urate (230-480 μmol/L): 10 Sep. 2014 515; for CRP: 10 Sep. 2014 <5; for BASDAI: baseline 8.7
Source text: Example of Treating a Patient with Ankylosing Spondylitis with a GnRH Antagonist
Diagnosed with ankylosing spondylitis in 1984, HLAB27 positive, with repeated iridocyclitis. Used non-steroidal anti-inflammatory drugs previously. They were offered the TNFα inhibitor Golilimumab in 2010. Their disease activity score was 8.9 in October 2010 (see below for explanation of disease activity score) on initiating Golilimumab; by the June 2012 this score had reduced to 6.6, but by May 2013 the effect had worn off and their score was 7.6. May 2013, they initiated Enbrel treatment, but their disease activity increased from 7.6 to 8.3. Due to their poor response to TNFα therapy, they were offered the GnRH antagonist degarelix in September 2014.
Disease activity in ankylosing spondylitis is measured by the BASDAI (Bath Ankylosing Spondylitis Disease Activity Index (1)), which has been extensively validated in clinical trials, 2, 3 and is one of the most commonly used outcome measures in clinical trials. This is a composite index that evaluates fatigue, axial and peripheral pain, stiffness and enthesopathy. Their BASDAI was at 8.7 at baseline. In September 2014 they received their first dose of degarelix 240 mg s.c. By 2 weeks, their BASDAI had reduced to 6.8, and by 6 weeks it had reduced to 5.8. This is the lowest BASDAI score they have ever had since we first started using this method of assessment 4 years ago in 2010. Their morning stiffness lasted 4 hours at baseline, by 6 weeks their morning stiffness had reduced to 2 hours. They had their second dose of degarelix 80 mg s.c in October 2014. Lumbar flexion and maximum arm abduction were increased after 6 weeks of treatment.
Response to therapy in clinical practice is defined as improvement of 2 units or 50% on a 0-10 scale of the BASDAI, and expert opinion that the treatment should be continued. Their reduction by 6 weeks was 2.9 units, and 7.1 units with an 82% BASDAI score improvement by 9 weeks, and we shall continue treatment. A BASDAI 50% improvement is defined as a major clinical response. […] For comparison, approximately 50-60% of patients achieve a BASDAI 50 by 12 weeks on TNF inhibitors (4). Their ESR has decreased from 46 mm to 23 mm, which is their lowest ESR reading in 19 years. […] By 9 weeks of GnRH antagonist therapy, their kidney function has normalized, and fasting glucose reduced from 7.4 to 6.5 mmol/L. By 3 months, the effect on their ankylosing spondylitis remained, creatinine was at 98 μmol/L, with a glomerular filtration rate of 66 ml/min/1.73 m^2 in December 2014.

[3] = system: Patient with Rheumatoid Arthritis; test: Rheumatoid arthritis patient treated with degarelix 40 mg weekly; details: 240 mg loading
Experimental: • person with seropositive rheumatoid arthritis with disease duration of 22 years. • Fulfilled ACR 2010 classification criteria for rheumatoid arthritis.
• Had tried most therapies available (for example: Humira, Remicade, Enbrel, Actemra, several disease modifying anti-rheumatic drugs), previously without effect or intolerable side effects. • Offered experimental GnRH antagonist therapy, degarelix 40 mg every week with 240 mg loading dose at baseline.

[4] = ankylosing spondylitis patient, after 6 weeks
[5] = ankylosing spondylitis patient, by 3 months, December 2014
[6] = ankylosing spondylitis patient, by 6 weeks
[7] = ankylosing spondylitis patient, by 9 weeks

`CC(=O)N[C@H](Cc1ccc2ccccc2c1)C(=O)N[C@H](Cc1ccc(Cl)cc1)C(=O)N[C@H](Cc1cccnc1)C(=O)N[C@@H](CO)C(=O)N[C@@H](Cc1ccc(NC(=O)[C@@H]2CC(=O)NC(=O)N2)cc1)C(=O)N[C@H](Cc1ccc(NC(N)=O)cc1)C(=O)N[C@@H](CC(C)C)C(=O)N[C@@H](CCCCNC(C)C)C(=O)N1CCC[C@H]1C(=O)N[C@H](C)C(N)=O` [degarelix] (Ac-[d2Nal][dPhe(4-Cl)][d3Pal]S[Phe(4-NH2)](Dihydroorotyl(S))[dPhe(4-NHCONH2)]L[Lys(iPr)]P[dA]-NH2) was tested, and the Disease activity score ([1]; 21.11.14, degarelix after methotrexate stopped 03.10.14) was 5.7, the Disease activity score ([1]; 29.9.14, degarelix with methotrexate 10 mg weekly) was 5.1 and the ACR response achieved ([1]; by 29.09.14 (start 16.06.14), with stable concomitant methotrexate and prednisolone) was “ACR60”. The “Glucose fasting (4.0-6.0 mmol/L)” value ([2]; 10 Nov. 2014 (9 weeks), 10 Sep. 2014 7.4) was 6.5 mmol/L, the “Glomerular filtration rate (>60)” value ([2]; 10 Nov. 2014) was 65 ml/min/1.73 m^2 and the “Creatinine (60-105 μmol/L)” value ([2]; 10 Nov. 2014) was 99 µmol/L. The “Urate (230-480 μmol/L)” value ([2]; 10 Nov. 2014) was 426 µmol/L, the CRP ([2]; 10 Nov. 2014) was <5 and the “Glomerular filtration rate (>60)” value ([2]; 24 Sep. 2014) was 55↓ ml/min/1.73 m^2. For the same molecule, the “Creatinine (60-105 μmol/L)” value ([2]; 24 Sep. 2014) was 114↑ μmol/L, the “Urate (230-480 μmol/L)” value ([2]; 24 Sep. 2014) was 512↑ μmol/L and the “ESR (<20 mm)” value ([2]; 24 Sep. 2014, 10 Sep. 2014 (start) 46) was 31↑ mm. For the same molecule, the CRP ([2]; 24 Sep. 2014) was <5, the “ESR (<20 mm)” value ([2]; 27 Oct. 2014, 10 Sep. 2014 46) was 28↑ mm and the “Glomerular filtration rate (>60)” value ([2]; 27 Oct. 2014) was 56↓ ml/min/1.73 m^2. For the same molecule, the “Creatinine (60-105 μmol/L)” value ([2]; 27 Oct. 2014) was 111↑ μmol/L, the “Urate (230-480 μmol/L)” value ([2]; 27 Oct. 2014) was 495↑ μmol/L and the CRP ([2]; 27 Oct. 2014) was <5. The Lumbar flexion [2, 4] was “increased”, the Maximum arm abduction [2, 4] was “increased” and the ASAS response achieved ([2]; ankylosing spondylitis patient, at least 80% improvement) was “ASAS 80”. For the same molecule, the BASDAI ([2]; ankylosing spondylitis patient, by 2 weeks) was 6.8, the Creatinine [2, 5] was 98 µmol/L and the Glomerular filtration rate [2, 5] was 66 ml/min/1.73 m^2. It also gave a BASDAI reduction [2, 6] of 2.9 units, a BASDAI [2, 6] of 5.8 and a Morning stiffness ([2]; ankylosing spondylitis patient, by 6 weeks, baseline 4 hours) of 2 h. For the same molecule, the BASDAI reduction [2, 7] was 7.1 units, the BASDAI score improvement [2, 7] was 82% and the Kidney function [2, 7] was “normalized”. The CRP ([3]; from 87 mg/L) was 67 mg/L, the ESR ([3]; from 62 mm) was 38 mm and the “Disease activity score (DAS)” value ([3]; at 2 weeks, from 7.3) was 6.7.

From patent US20160346255A1, “METHODS, AGENTS AND COMPOSITIONS FOR TREATMENT OF INFLAMMATORY CONDITIONS” (Betanien Hospital, priority 2014, published 2016)
